Our source for the Kd values is PubChem BioAssay AID1648 (Sanford-Burnham Center for Chemical Genomics, 2009).

As a reminder, the Kd is the concentration at which binding is half-saturated.

Activity calls are given as the source filed them. How the calls were made is not given here.

Serine/threonine-protein kinase mTOR (Homo sapiens), sequence (P42345 2015-2114): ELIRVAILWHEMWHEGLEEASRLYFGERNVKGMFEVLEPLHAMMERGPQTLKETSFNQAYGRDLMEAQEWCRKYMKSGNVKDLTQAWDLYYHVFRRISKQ

The test has as its target Serine/threonine-protein kinase mTOR (Homo sapiens) (UniProt P42345). Description: mTOR FRB domain ligand binding – biophysical, NMR (AID 1648). Particulars: NMR binding to FRB domain, chemical shift.
On to `CCCCCc1c2c(cc(O)c1C(=O)O)OC(=O)c1c(cc(OC)cc1C(=O)CCCC)O2`, for which the Kd was > 4 mM (inactive). For `CC(=O)O[C@H]1CC[C@@]2(C)C(=CC(=O)C3C4CCC(C(C)CCCC(C)C)[C@@]4(C)CCC32)C1` (stereo partly specified), the Kd is > 4 mM (inactive). Take `O=C(O)C1CC(=O)N(Cc2ccco2)C1` (stereo unspecified): the Kd was > 4 mM (inactive). The figure for `COC(=O)C[C@@H]1C2(C)C(=O)[C@@H](CC3C2CC[C@]2(C)C3CC(=O)O[C@H]2c2ccoc2)[C@H](OC(C)=O)C1(C)C` (stereo partly specified) is > 4 mM (inactive); for `O=C(/C=C(\O)c1ccccc1)c1ccccc1O` it is > 4 mM (inactive). `Nc1ccn(C2O[C@H](CO)[C@@H](O)[C@H]2O)c(=O)n1` (stereo partly specified): the Kd is > 4 mM (inactive). With `CCCc1cc2c(c(NC(C)=O)n1)c(=O)oc1ccccc12`, the Kd was > 4 mM (inactive). For `O=C(Nc1ccccc1Cl)c1cnccn1`, the Kd was > 4 mM (inactive).

Turning to `COc1cc2c(cc1OC)C(=O)OC2`, the Kd was > 4 mM (inactive). As for `O=C(NCC1CCNCC1)c1ccccn1`, the Kd is > 4 mM (inactive). Take `O=C(Nc1ccncc1)Nc1ccc(F)cc1F`: the Kd was > 4 mM (inactive). As for `Cc1ccc(SCC(=O)N2CCOCC2)cc1`, the Kd was > 4 mM (inactive). Regarding `NNC(=O)c1ccccc1-n1cccc1`, the Kd was > 4 mM (inactive). Next, `Cc1cc(NC(=O)c2ccc3c(c2)OCO3)no1`: > 4 mM (inactive); `COc1ccc2c3c([nH]c2c1)C(C)=NCC3`: > 4 mM (inactive). For the compound `NC(=O)Cc1nc2ccccc2[nH]1`, the Kd is > 4 mM (inactive).

With `O=C(O)c1ccc(-n2cccc2)cc1`, the Kd is > 4 mM (inactive). In the case of `O=C1NNC(=O)C2C3c4ccccc4C(c4ccccc43)C12` (stereo unspecified), the Kd is > 4 mM (inactive).

Take `COC(=O)c1ccc2snnc2c1`: the Kd is > 4 mM (inactive).

For `O=C(O)c1ccccc1C(=O)NCC1CCCO1` (stereo unspecified), the Kd is > 4 mM (inactive). Take `Cc1cccc(C)c1NC(=O)CN1CCOCC1`: the Kd is > 4 mM (inactive). For the compound `COc1ccccc1NC(=O)C1CCC(=O)N1` (stereo unspecified), the Kd was > 4 mM (inactive). The figure for `Cc1nc(NC2=NCCC(=O)N2)nc2ccccc12` is > 4 mM (inactive); for `c1ccc(CN2CCC3(CC2)Nc2ccccc2CO3)cc1` it is > 4 mM (inactive); for `CC(C)=CCOc1cc2oc(=O)ccc2cc1O` it is > 4 mM (inactive). The figure for `CC(Sc1ncn[nH]1)C(=O)O` (stereo unspecified) is > 4 mM (inactive). For the compound `OC1CCC(C(F)(F)F)CC1` (stereo unspecified), the Kd was > 4 mM (inactive).

Regarding `O=C(NCc1ccccc1Cl)c1cnn2cccnc12`, the Kd is > 4 mM (inactive). Regarding `O=C(CSc1ccc(Cl)cc1)N1CCOCC1`, the Kd was > 4 mM (inactive).

In the case of `CC1(C)CC[C@]2(C(=O)O)CC[C@]3(C)C(=CCC4[C@@]5(C)CC[C@H](O)[C@@](C)(CO)C5CC[C@]43C)C2C1` (stereo partly specified), the Kd is > 4 mM (inactive). Regarding `O=C(Nc1ccccc1C(F)(F)F)c1cnccn1`, the Kd was > 4 mM (inactive). The figure for `CC(C)NC(=O)c1cc(=O)n(C)c(=O)n1C` is > 4 mM (inactive); for `Nc1cc(=O)[nH]c(=O)n1Cc1ccco1` it is > 4 mM (inactive); for `Cc1ccc2c(c1)CCCN2C(=O)c1c(C)noc1C` it is > 4 mM (inactive). With `NCc1ccc(-c2ccccn2)s1`, the Kd is > 4 mM (inactive).

In the case of `Cc1csc2nc(N)nn12`, the Kd is > 4 mM (inactive). With `O=C1NCC(=O)N2CCc3ccccc3C12` (stereo unspecified), the Kd is > 4 mM (inactive). With `O=C1CSC(c2ccccc2)N1` (stereo unspecified), the Kd was > 4 mM (inactive).

Regarding `C=CC(C1=CC(=O)C(OC)=CC1=O)c1ccc(O)cc1` (stereo unspecified), the Kd was > 4 mM (inactive). Next, `O=C(O)c1cncc(-c2ccccc2)c1`: > 4 mM (inactive); `O=C(c1ccccc1F)N1CCN(c2ccccc2)CC1`: > 4 mM (inactive).

Consider `CC(=O)Oc1cc(OC(C)=O)c2c(c1)O[C@H](c1ccc(OC(C)=O)c(OC(C)=O)c1)[C@H](OC(C)=O)C2`, for which the Kd is > 4 mM (inactive). For the compound `OCCNc1ccccn1`, the Kd is > 4 mM (inactive). As for `COc1c2c(c(CC=C(C)C)c3oc(=O)c(-c4ccc(O)cc4)c(O)c13)OC(C)(C)C=C2`, the Kd was > 4 mM (inactive). On to `O=C(O)c1coc2c1C(=O)CCC2`, for which the Kd is > 4 mM (inactive). `O=C(O)c1ccc(CN2CCOCC2)cc1`: the Kd is > 4 mM (inactive). For the compound `COc1ccc([C@@H]2CC(=O)c3c(O)cc(O[C@@H]4O[C@H](CO[C@H]5O[C@@H](C)[C@H](O)[C@@H](O)[C@H]5O)[C@@H](O)[C@H](O)[C@H]4O)cc3O2)cc1O`, the Kd is > 4 mM (inactive). In the case of `COc1ccc(S(N)(=O)=O)cc1`, the Kd was > 4 mM (inactive). Regarding `O=C(O)C1CC2CC1CCC2O` (stereo unspecified), the Kd was > 4 mM (inactive). As for `CN(C)C(=O)c1ccccc1-c1ccccc1`, the Kd was > 4 mM (inactive).

As for `COC(=O)[C@@H]1OC(=O)C2OC23[C@@]1(C)CCC1[C@]2(C)C(C[C@@H](O)[C@]13C)C(C)(C)[C@H](OC(C)=O)C[C@@H]2OC(C)=O` (stereo partly specified), the Kd was > 4 mM (inactive). On to `O=C(O)CC1NCCNC1=O` (stereo unspecified), for which the Kd is > 4 mM (inactive). With `COc1ccc2c(=O)c(OC)c(-c3ccccc3)oc2c1`, the Kd was > 4 mM (inactive). Regarding `CC[C@]12CCCN3CCc4c(n(c5ccccc45)[C@](O)(C(=O)OC)C1)[C@@H]32`, the Kd is > 4 mM (inactive). For the compound `CC(=O)NCS(=O)(=O)c1ccc(C)cc1`, the Kd is > 4 mM (inactive). In the case of `CCSc1n[nH]c(=O)[nH]c1=O`, the Kd is > 4 mM (inactive).

For `NC(=O)C1CCN(CC2CC=CCC2)CC1` (stereo unspecified), the Kd is > 4 mM (inactive).

For `COC(=O)C[C@@H]1C2(C)C(=O)[C@@H](CC3=C4CC(O)O[C@@H](c5ccoc5)[C@]4(C)CCC32)[C@H](O)C1(C)C` (stereo partly specified), the Kd was > 4 mM (inactive). Regarding `CN(C)C(=O)N1CCN(C(=O)c2ccco2)CC1`, the Kd is > 4 mM (inactive). The figure for `C[C@H](CCC(=O)O)[C@H]1CCC2C3C(CC[C@@]21C)[C@@]1(C)CC[C@@H](O)C[C@H]1C[C@@H]3O` (stereo partly specified) is > 4 mM (inactive); for `OC1CC2CCC1C2` (stereo unspecified) it is > 4 mM (inactive).

Regarding `CCC1=Nc2ccccc2-c2nnc(SC)nc2O1`, the Kd was > 4 mM (inactive).

As to `NC(=O)c1cccc2c(=O)oc3ccccc3c12`, the Kd is > 4 mM (inactive).

Regarding `CSc1nc(-c2ccco2)nn1S(C)(=O)=O`, the Kd was > 4 mM (inactive).

For `CC(C)CCCC(C)[C@H]1CCC2C3CC=C4CC(=O)CC[C@]4(C)C3CC[C@@]21C` (stereo partly specified), the Kd was > 4 mM (inactive). For the compound `Cc1ccccc1NC(=O)c1ocnc1C`, the Kd was > 4 mM (inactive).

Turning to `Cc1ccc(NC(=O)c2ccccc2)s1`, the Kd was > 4 mM (inactive).

`O=C(O)c1cc2ccccc2s1`: the Kd was > 4 mM (inactive). On to `Cc1cccc(NC(=O)CN2C(=O)CNC2=O)c1`, for which the Kd is > 4 mM (inactive). As for `CP(C)(=O)c1cccc(C(=O)O)c1`, the Kd was > 4 mM (inactive).

On to `CC1=C/C(=C\c2c(O)[nH]c(=O)[nH]c2=O)C(C)=N1`, for which the Kd is > 4 mM (inactive). For `N#CCSc1nc2ccccc2c(=O)n1-c1ccccc1`, the Kd is > 4 mM (inactive). Regarding `CN(C)c1nc(N2CCOCC2)c2cnn(C)c2n1`, the Kd is > 4 mM (inactive). On to `O=C1CSC(=Nc2cc(Cl)ccc2Cl)N1`, for which the Kd is > 4 mM (inactive). Turning to `CN1CCC[C@H]1c1cccnc1`, the Kd was > 4 mM (inactive). Next, `O=C1NC(=S)N/C1=C\c1cccnc1`: > 4 mM (inactive); `CCC(C)C(=O)O[C@@H]1C[C@@]2(C)[C@H](c3ccoc3)OC(=O)CC23OC2(C)O[C@]14[C@]1(C)[C@@H](CC(=O)OC)C5(C)CC1(O)[C@](O)(C5OC(=O)C1(C)OC1C)[C@@H](OC(C)=O)[C@]34O2` (stereo partly specified): > 4 mM (inactive). For `CC(C)(O)[C@@H]1[C@H]2OC(=O)[C@@H]1[C@]1(O)C[C@H]3O[C@]34C(=O)O[C@H]2[C@]14C`, the Kd is > 4 mM (inactive). With `CCCCCC1C(=O)CCC1CC(=O)O` (stereo unspecified), the Kd is > 4 mM (inactive). The figure for `O=C(O[C@@H]1Cc2c(O)cc(O)cc2O[C@@H]1c1cc(=O)c(O)c2c(O)c(O)cc([C@H]3Oc4cc(O)cc(O)c4C[C@H]3O)c2c1)c1cc(O)c(O)c(O)c1` is > 4 mM (inactive); for `O=C1C2C3C=CC(C3)C2C(=O)N1CCCO` (stereo unspecified) it is > 4 mM (inactive); for `c1ccc(-c2noc(-c3cccnc3)n2)nc1` it is > 4 mM (inactive). The figure for `CN1CCN(C(=O)Nc2cccc3ccccc23)CC1` is > 4 mM (inactive); for `CC(C)C(=O)NCC(c1ccco1)N1CCOCC1` (stereo unspecified) it is > 4 mM (inactive).

With `Cc1ccc(S(=O)(=O)/N=C2\NC(=O)CS2)cc1`, the Kd is > 4 mM (inactive). `CN1CCN(C2CCSC2)CC1` (stereo unspecified): the Kd was > 4 mM (inactive).

As to `O=C1CCCC(=O)N1Cc1ccco1`, the Kd is > 4 mM (inactive). As to `COc1nc(C)ccc1-c1noc(-c2ccncc2)n1`, the Kd was > 4 mM (inactive). With `O=C(CSc1ncn[nH]1)c1ccccc1`, the Kd was > 4 mM (inactive). For the compound `Cn1c(SCC(N)=O)nc2ccccc2c1=O`, the Kd is > 4 mM (inactive). Regarding `CC(=O)Nc1cccc(-c2nnc(-c3ccccc3)o2)c1`, the Kd is > 4 mM (inactive).

Take `Nc1ncccc1OCc1ccccc1`: the Kd is > 4 mM (inactive). Turning to `C=C1CCC(C2CC(=O)OC2=O)C(=O)CCC2C1CC2(C)C` (stereo unspecified), the Kd was > 4 mM (inactive).

As to `CC(=O)c1c(C)nc(C)nc1NC(=O)C(C)C`, the Kd is > 4 mM (inactive). Turning to `O=C(CSc1ncccn1)NCc1ccco1`, the Kd was > 4 mM (inactive). Regarding `COc1c2ccccc2nc2occc12`, the Kd is > 4 mM (inactive).
